Source: ChEMBL document CHEMBL4184276, “Curcumin inspired 2-chloro/phenoxy quinoline analogues: Synthesis and biological evaluation as potential anticancer agents” (Bioorg Med Chem Lett, 2018)

Key:
HeLa = assay: Cytotoxicity against human HeLa cells assessed as reduction in cell viability after 48 hrs by MTT assay; type: functional, cell-based
HGC-27 = assay: Cytotoxicity against human HGC27 cells assessed as reduction in cell viability after 48 hrs by MTT assay; type: functional, cell-based; conditions: HGC-27, 48 h
NCI-H460 [1] = assay: Cytotoxicity against human NCI-H460 cells assessed as reduction in cell viability after 48 hrs by MTT assay; type: functional, cell-based; conditions: NCI-H460, 48 h
DU-145 [2] = assay: Cytotoxicity against human DU145 cells assessed as reduction in cell viability after 48 hrs by MTT assay; type: functional, cell-based; conditions: DU-145, 48 h
PC-3 [3] = assay: Cytotoxicity against human PC3 cells assessed as reduction in cell viability after 48 hrs by MTT assay; type: functional, cell-based; conditions: PC-3, 48 h
4T1 = assay: Cytotoxicity against mouse 4T1 cells assessed as reduction in cell viability after 48 hrs by MTT assay; type: functional, cell-based; conditions: 4T1, 48 h
NCI-H460 [4] = assay: Potency index, ratio of curcumin IC50 to compound IC50 for human NCI-H460 cells; type: functional
DU-145 [5] = assay: Potency index, ratio of curcumin IC50 to compound IC50 for human DU145 cells; type: functional
PC-3 [6] = assay: Potency index, ratio of curcumin IC50 to compound IC50 for human PC3 cells; type: functional
[7] = Aqueous solubility in milli-Q water at 2 mg incubated for 5 mins followed by sonication for 1 mins measured after 24 hrs by UV-Visible spectroscopic method; type: physicochemical

| Compound | IC50 (HeLa) [µM] | IC50 (HGC-27) [µM] | IC50 (NCI-H460 [1]) [µM] | IC50 (DU-145 [2]) [µM] | IC50 (PC-3 [3]) [µM] | IC50 (4T1) [µM] | Ratio IC50 (NCI-H460 [4]) | Ratio IC50 (DU-145 [5]) | Ratio IC50 (PC-3 [6]) | solubility [7] |
| --- | --- | --- | --- | --- | --- | --- | --- | --- | --- | --- |
| COc1ccc(/C=C/C(=O)/C=C/c2cc3ccccc3nc2Cl)cc1 | > 10 | > 10 | > 10 | > 10 | > 10 | > 10 |  |  |  |  |
| COc1ccc(/C=C/C(=O)/C=C/c2cc3ccccc3nc2Oc2ccccc2)cc1OC | > 10 | > 10 | > 10 | > 10 | > 10 | > 10 |  |  |  |  |
| COc1cc(OC)c(/C=C/C(=O)/C=C/c2cc3ccccc3nc2Oc2ccccc2C(C)C)c(OC)c1 | > 10 | > 10 | > 10 | > 10 | > 10 | > 10 |  |  |  |  |
| COc1ccc(/C=C/C(=O)/C=C/c2cc3ccccc3nc2Oc2ccccc2)cc1 | > 10 | > 10 | > 10 | > 10 | > 10 | > 10 |  |  |  |  |
| COc1cc(OC)c(/C=C/C(=O)/C=C/c2cc3ccccc3nc2Oc2ccccc2)c(OC)c1 | > 10 | > 10 | > 10 | > 10 | > 10 | > 10 |  |  |  |  |
| COc1cc(OC)c(/C=C/C(=O)/C=C/c2cc3ccccc3nc2Oc2cccc(Cl)c2)c(OC)c1 | > 10 | > 10 | > 10 | > 10 | > 10 | > 10 |  |  |  |  |
| COc1ccc(/C=C/C(=O)/C=C/c2cc3ccccc3nc2Oc2ccc(Br)cc2)c(OC)c1 | > 10 | > 10 | > 10 | > 10 | > 10 | > 10 |  |  |  |  |
| COc1ccc(/C=C/C(=O)/C=C/c2cc3ccccc3nc2Oc2ccccc2)c(OC)c1 | > 10 | > 10 | > 10 | > 10 | > 10 | > 10 |  |  |  |  |
| COc1cc(OC)c(OC)cc1/C=C/C(=O)/C=C/c1cc2ccccc2nc1Oc1ccccc1 | 12.2 | 10.5 | 8.03 | 9.22 | 7.29 | 7.63 | 2.1 | 3.6 | 2.6 | Soluble |
| COc1cc(OC)c(/C=C/C(=O)/C=C/c2cc3ccccc3nc2Cl)c(OC)c1 | > 10 | > 10 | > 10 | > 10 | > 10 | > 10 |  |  |  |  |
| COc1cc(OC)c(OC)cc1/C=C/C(=O)/C=C/c1cc2ccccc2nc1Oc1cccc(Cl)c1 | > 10 | > 10 | > 10 | > 10 | > 10 | > 10 |  |  |  |  |
